Assay [1] deals with Splenocyte. In words: Inhibition of concanavalin A-stimulated mouse splenocyte proliferation by MTT method. It is filed as functional, cell-based.
The subject of assay [2] is Splenocyte. In words: Inhibition of LPS-stimulated mouse splenocyte proliferation by MTT method. It is filed as functional, cell-based.

Here are results for 2 compounds from ChEMBL document CHEMBL1149341, “Two novel immunosuppressive pregnane glycosides from the roots of Stephanotis mucronata” (Bioorg Med Chem Lett, 2006).

Each structure is given as a SMILES string.

Take `CNc1ccccc1C(=O)O[C@H](C)[C@]1(O)CC[C@@]2(O)[C@]1(C)[C@H](OC(C)=O)C[C@@H]1[C@@]3(C)CC[C@H](O[C@H]4C[C@H](OC)[C@H](OC5C[C@H](OC)[C@H](O[C@@H]6O[C@H](C)[C@@H](O[C@@H]7O[C@H](CO)[C@@H](O)[C@H](O)[C@H]7O)[C@@H](OC)[C@H]6O)[C@@H](C)O5)[C@@H](C)O4)C[C@@H]3CC[C@]12O` (some centres undefined): the Activity result in the assay with Splenocyte [1] and in the assay with Splenocyte [2] was “Dose-dependent effect” each time.
With `CO[C@H]1[C@@H](O)[C@H](O[C@H]2[C@@H](OC)C[C@H](O[C@H]3[C@@H](OC)C[C@H](O[C@H]4CC[C@@]5(C)C(=CC[C@]6(O)C5C[C@@H](OC(=O)c5cccnc5)[C@@]5(C)[C@]6(O)CC[C@@]5(O)[C@@H](C)OC(=O)/C=C/c5ccccc5)C4)O[C@@H]3C)O[C@@H]2C)O[C@H](C)[C@H]1O[C@@H]1O[C@H](CO)[C@@H](O)[C@H](O)[C@H]1O` (some centres undefined), the Activity entry in the assay with Splenocyte [1] and in the assay on Splenocyte [2] was “Dose-dependent effect” each time.
